{
  "source": "patent US20090131508A1",
  "about": "“Use of 2-Oxo-1-Pyrrolidone Derivatives for the Preparation of a Drug” (UCB PHARMA, S.A., priority 2005, published 2009)",
  "origin": "cited, not measured here",
  "test_system": "epilepsy",
  "details": "A. J. Gower et al., Eur. J. Pharmacol., 222, (1992), 193-203; cited from earlier work",
  "data": [
    {"smiles": "CC[C@H](C(N)=O)N1CCCC1=O", "note": "[(R)-(+)-α-ethyl-2-oxo-1-pyrrolidine-acetamide]", "values": [
      {"measurement": "Activity in the treatment of epilepsy", "value": "completely devoid of activity"}
    ]}
  ]
}
